Values of other authors, collected in PubChem BioAssay AID1259409 (Chemical Carcinogenesis Research Information System (CCRIS), 2018).

Tested on: rodent chemically induced tumor inhibition, incidence and multiplicity
Assay: CCRIS tumor inhibitor studies
Details: Route [Inhibitor]: ORAL

SMILES: S=C=NCCc1ccccc1
- tumour outcome (control, treated, inhibition, significance) (Carcinogen: DIETHYLNITROSAMINE, 55-18-5, N-METHYL-N-NITROSOUREA, 684-93-5, N-BUTYL-N-(4-HYDROXYBUTYL)NITROSAMINE, 3817-11-6, DIMETHY, Carcinogen: DIETHYLNITROSAMINE, 55-18-5, N-METHYL-N-NITROSOUREA, 684-93-5, N-BUTYL-N-(4-HYDROXYBUTYL)NITROSAMINE, 3817-11-6, DIMETHY, Dose [Inhibitor]: 0, 0.1% IN THE DIET FOR 30 D BEGINNING 1 DAY PRIOR TO CARCINOGEN TREATMENT (STUDY DURATION: 28 WK), Species: RAT, Strain/Sex: F344/MALE, Target Tissue: Type of Lesion: LARGE INTESTINE: ADENOMA, Dose [Carcinogen]: 100 MG/KG BW DEN ONCE FOLLOWED BY 20 MG/KG BW MNU 4 TIMES AND 0.05% BBN IN DRINKING WATER DURING FIRST 2 WK THEN 40 MG/K, Promoter: NONE USED): 27%, 54%, -100%, not significant
- tumour outcome (control, treated, inhibition, significance) (Carcinogen: DIETHYLNITROSAMINE, 55-18-5, N-METHYL-N-NITROSOUREA, 684-93-5, N-BUTYL-N-(4-HYDROXYBUTYL)NITROSAMINE, 3817-11-6, DIMETHY, Carcinogen: DIETHYLNITROSAMINE, 55-18-5, N-METHYL-N-NITROSOUREA, 684-93-5, N-BUTYL-N-(4-HYDROXYBUTYL)NITROSAMINE, 3817-11-6, DIMETHY, Dose [Inhibitor]: 0, 0.1% IN THE DIET FOR 30 D BEGINNING 1 DAY PRIOR TO CARCINOGEN TREATMENT (STUDY DURATION: 28 WK), Species: RAT, Strain/Sex: F344/MALE, Target Tissue: Type of Lesion: SMALL INTESTINE: CARCINOMA, Dose [Carcinogen]: 100 MG/KG BW DEN ONCE FOLLOWED BY 20 MG/KG BW MNU 4 TIMES AND 0.05% BBN IN DRINKING WATER DURING FIRST 2 WK THEN 40 MG/K, Promoter: NONE USED): 7%, 23%, -229%, not significant
- tumour outcome (control, treated, inhibition, significance) (Carcinogen: DIETHYLNITROSAMINE, 55-18-5, N-METHYL-N-NITROSOUREA, 684-93-5, N-BUTYL-N-(4-HYDROXYBUTYL)NITROSAMINE, 3817-11-6, DIMETHY, Carcinogen: DIETHYLNITROSAMINE, 55-18-5, N-METHYL-N-NITROSOUREA, 684-93-5, N-BUTYL-N-(4-HYDROXYBUTYL)NITROSAMINE, 3817-11-6, DIMETHY, Dose [Inhibitor]: 0, 0.1% IN THE DIET FOR 30 D BEGINNING 1 DAY PRIOR TO CARCINOGEN TREATMENT (STUDY DURATION: 28 WK), Species: RAT, Strain/Sex: F344/MALE, Target Tissue: Type of Lesion: THYROID: CARCINOMA, Dose [Carcinogen]: 100 MG/KG BW DEN ONCE FOLLOWED BY 20 MG/KG BW MNU 4 TIMES AND 0.05% BBN IN DRINKING WATER DURING FIRST 2 WK THEN 40 MG/K, Promoter: NONE USED): 7%, 8%, -14%, not significant
- tumour outcome (control, treated, inhibition, significance) (Carcinogen: DIETHYLNITROSAMINE, 55-18-5, N-METHYL-N-NITROSOUREA, 684-93-5, N-BUTYL-N-(4-HYDROXYBUTYL)NITROSAMINE, 3817-11-6, DIMETHY, Carcinogen: DIETHYLNITROSAMINE, 55-18-5, N-METHYL-N-NITROSOUREA, 684-93-5, N-BUTYL-N-(4-HYDROXYBUTYL)NITROSAMINE, 3817-11-6, DIMETHY, Dose [Inhibitor]: 0, 0.1 IN THE DIET FOR 30 D BEGINNING 1 DAY PRIOR TO CARCINOGEN TREATMENT (STUDY DURATION: 28 WK), Species: RAT, Strain/Sex: F344/MALE, Target Tissue: Type of Lesion: SMALL INTESTINE: ADENOMA, Dose [Carcinogen]: 100 MG/KG BW DEN ONCE FOLLOWED BY 20 MG/KG BW MNU 4 TIMES AND 0.05% BBN IN DRINKING WATER DURING FIRST 2 WK THEN 40 MG/K, Promoter: NONE USED): 33%, 31%, 6%, not significant
- tumour outcome (control, treated, inhibition, significance) (Carcinogen: DIETHYLNITROSAMINE, 55-18-5, N-METHYL-N-NITROSOUREA, 684-93-5, N-BUTYL-N-(4-HYDROXYBUTYL)NITROSAMINE, 3817-11-6, DIMETHY, Carcinogen: DIETHYLNITROSAMINE, 55-18-5, N-METHYL-N-NITROSOUREA, 684-93-5, N-BUTYL-N-(4-HYDROXYBUTYL)NITROSAMINE, 3817-11-6, DIMETHY, Dose [Inhibitor]: 0.1% IN THE DIET FOR 30 D BEGINNING 1 DAY PRIOR TO CARCINOGEN TREATMENT (STUDY DURATION: 28 WK), Species: RAT, Strain/Sex: F344/MALE, Target Tissue: Type of Lesion: URINARY BLADDER: CARCINOMA, Dose [Carcinogen]: 100 MG/KG BW DEN ONCE FOLLOWED BY 20 MG/KG BW MNU 4 TIMES AND 0.05% BBN IN DRINKING WATER DURING FIRST 2 WK THEN 40 MG/K, Promoter: NONE USED): 7%, 0%, 100%, not significant
- tumour outcome (control, treated, inhibition, significance) (Carcinogen: DIETHYLNITROSAMINE, 55-18-5, N-METHYL-N-NITRSOUREA, 684-93-5, N-BUTYL-N-(4-HYDROXYBUTYL)NITROSAMINE, 3817-11-6, DIMETHYL, Carcinogen: DIETHYLNITROSAMINE, 55-18-5, N-METHYL-N-NITRSOUREA, 684-93-5, N-BUTYL-N-(4-HYDROXYBUTYL)NITROSAMINE, 3817-11-6, DIMETHYL, Dose [Inhibitor]: 0, 0.1% IN THE DIET FOR 30 D BEGINNING 1 DAY PRIOR TO CARCINOGEN TREATMENT (STUDY DURATION: 28 WK), Species: RAT, Strain/Sex: F344/MALE, Target Tissue: Type of Lesion: URINARY BLADDER: PAPILLOMA, Dose [Carcinogen]: 100 MG/KG BW DEN ONCE FOLLOWED BY 20 MG/KG BW MNU 4 TIMES AND 0.05% BBN IN DRINKING WATER DURING FIRST 2 WK THEN 40 MG/K, Promoter: NONE USED): 7%, 0%, 100%, not significant
- tumour outcome (control, treated, inhibition, significance) (Carcinogen: N-BUTYL-N(4-HYDROXYBUTYL)NITROSAMINE (3817-11-6), Dose [Inhibitor]: 0.5 UMOL/G IN DIET BEGINNING 1 WK BEFORE CARCINOGEN EXPOSURE (STUDY DURATION: 16 WK), Species: RAT, Strain/Sex: WISTAR/MALE, Target Tissue: Type of Lesion: URINARY BLADDER: PAPILLOMA, Dose [Carcinogen]: 0.025% IN DRINKING WATER FOR 15 WK, Promoter: NONE USED): 38/40 (95%), 26/30 (87%), 8%, not significant
- tumour outcome (control, treated, inhibition, significance) (Carcinogen: N-BUTYL-N(4-HYDROXYBUTYL)NITROSAMINE (3817-11-6), Dose [Inhibitor]: 0.5 UMOL/G IN DIET BEGINNING 1 WK BEFORE CARCINOGEN EXPOSURE (STUDY DURATION: 16 WK), Species: RAT, Strain/Sex: WISTAR/MALE, Target Tissue: Type of Lesion: URINARY BLADDER: TRANSITIONAL CELL CARCINOMA, Dose [Carcinogen]: 0.025% IN DRINKING WATER FOR 15 WK, Promoter: NONE USED): 4/40 (10%), 4/30 (13%), -30%, not significant
- tumour outcome (control, treated, inhibition, significance) (Carcinogen: N-NITROSOBENZYLMETHYLAMINE, 937-40-6, Dose [Inhibitor]: 0, 3 UMOL/G DIET BEGINNING 2 WK PRIOR TO CARCINOGEN TREATMENT AND CONTINUING FOR 8 WK POST CARCINOGEN TREATMENT (STUDY D, Species: RAT, Strain/Sex: F344/MALE, Target Tissue: Type of Lesion: ESOPHAGUS: TUMOR, Dose [Carcinogen]: 0.5 MG/KG 1/WK FOR 15 WK, Promoter: NONE USED): 100%, 13%, 87%, not calculated
- tumour outcome (control, treated, inhibition, significance) (Carcinogen: N-NITROSOBENZYLMETHYLAMINE, 937-40-6, Dose [Inhibitor]: 0, 3 UMOL/G IN DIET BEGINNING 2 WK PRIOR TO CARCINOGEN TREATMENT AND CONTINUING FOR DURATION OF STUDY (STUDY DURATION: 2, Species: RAT, Strain/Sex: F344/MALE, Target Tissue: Type of Lesion: ESOPHAGUS: TUMORS, Dose [Carcinogen]: 0.5 MG/KG BW IN 0.1 ML OF DMSO 1/WK FOR 15 WK, Promoter: NONE USED): 100%, 13%, 87%, not calculated
- tumour outcome (control, treated, inhibition, significance) (Carcinogen: N-NITROSOBENZYLMETHYLAMINE, 937-40-6, Dose [Inhibitor]: 0, 6 UMOL/G DIET BEGINNING 2 WK PRIOR TO CARCINOGEN TREATMENT AND CONTINUING FOR 8 WK POST CARCINOGEN TREATMENT (STUDY D, Species: RAT, Strain/Sex: F344/MALE, Target Tissue: Type of Lesion: ESOPHAGUS: TUMOR, Dose [Carcinogen]: 0.5 MG/KG 1/WK FOR 15 WK, Promoter: NONE USED): 100%, 0%, 100%, not calculated
- tumour outcome (control, treated, inhibition, significance) (Carcinogen: N-NITROSOBENZYLMETHYLAMINE, 937-40-6, Dose [Inhibitor]: 0, 6 UMOL/G IN DIET BEGINNING 2 WK PRIOR TO CARCINOGEN TREATMENT AND CONTINUING FOR DURATION OF STUDY (STUDY DURATION: 2, Species: RAT, Strain/Sex: F344/MALE, Target Tissue: Type of Lesion: ESOPHAGUS: TUMORS, Dose [Carcinogen]: 0.5 MG/KG BW IN 0.1 ML OF DMSO 1/WK FOR 15 WK, Promoter: NONE USED): 15/15 (100%), 0/15 (0%), 100%, not calculated
- tumour outcome (control, treated, inhibition, significance) (Carcinogen: N-NITROSOBIS(2-OXOPROPYL)AMINE [60599-38-4], Dose [Inhibitor]: 3 UMOL IN DIET FOR 49 WK BEGINNING 2 WK POST LAST CARCINOGEN DOSE (STUDY DURATION: 52 WK), Species: HAMSTER, Strain/Sex: SYRIAN/FEMALE, Target Tissue: Type of Lesion: LIVER: CHOLANGIOCELLAR ADENOMA, Dose [Carcinogen]: 20 MG/KG BW 1X/WK FOR 2 WK (STUDY DURATION: 52 WK), Promoter: NONE): 19/25 (76.0%), 20/28 (71.4%), 6%, not significant
- tumour outcome (control, treated, inhibition, significance) (Carcinogen: N-NITROSOBIS(2-OXOPROPYL)AMINE [60599-38-4], Dose [Inhibitor]: 3 UMOL IN DIET FOR 49 WK BEGINNING 2 WK POST LAST CARCINOGEN DOSE (STUDY DURATION: 52 WK), Species: HAMSTER, Strain/Sex: SYRIAN/FEMALE, Target Tissue: Type of Lesion: LIVER: CHOLANGIOCELLULAR ADENOMA, Dose [Carcinogen]: 20 MG/KG BW 1X/WK FOR 2 WK (STUDY DURATION: 52 WK), Promoter: NONE): 19/25 (76.0%), 23/28 (82.1%), -8%, not significant
- tumour outcome (control, treated, inhibition, significance) (Carcinogen: N-NITROSOBIS(2-OXOPROPYL)AMINE [60599-38-4], Dose [Inhibitor]: 3 UMOL IN DIET FOR 49 WK BEGINNING 2 WK POST LAST CARCINOGEN DOSE (STUDY DURATION: 52 WK), Species: HAMSTER, Strain/Sex: SYRIAN/FEMALE, Target Tissue: Type of Lesion: LIVER: HEPATOCELLULAR ADENOMA, Dose [Carcinogen]: 20 MG/KG BW 1X/WK FOR 2 WK (STUDY DURATION: 52 WK), Promoter: NONE): 18/25 (72.0%), 16/28 (57.1%), 21%, not significant
